In the test the test system is citrated whole blood. As to the kind of experiment: ROTEM (NATEM) of recalcified citrated whole blood with added bead suspension or supernatant. To be noted: cell-coated beads preincubated with TNFα 10 ng/ml for 12-16 h; compared with unstimulated cells. It is filed as cell-based, human. How it is done:
To seed endothelial cells on microbeads, an approximate cell count of 400 OEC or HUVEC per bead was mixed with Cytodex 3 (collagen-coated) dextran microcarrier beads (GE Healthcare Bio-Sciences AB, Uppsala, Sweden) in 1 ml of EGM-2 medium. Beads and cells were incubated at 37° C. and 5% CO2 for 4 h and shaken gently every 20 min. After transferring the suspension to a 25-cm^2 tissue culture flask (Greiner Bio-One, Linz, Austria), microbeads were optionally incubated with TNFα (Sigma Aldrich, Vienna) at a final concentration of 10 ng/ml for 12-16 h at 37° C. and 5% CO2 in 4 ml of EGM-2 to simulate an inflammatory situation. To assess the influence of collagen, data from bare, collagen-coated Cytodex 3 were compared with uncoated Cytodex 1 (GE Healthcare Bio-Sciences AB, Uppsala, Sweden) beads in an identical setting.
Coated Beads and overnight-conditioned cell culture supernatant were gently taken up with a 10 ml serological pipette and transferred to a 15 ml Falcon tube. Once beads descended, the supernatant was carefully transferred to 1.5 ml tubes and centrifuged at 1,500×g for 20 minutes. […]
The following ROTEM parameters were calculated from the signal and included in the statistical analysis: Clotting time (CT, sec), latency until the clot reaches a firmness of 2 mm; measure for initial thrombin and fibrin formation. […]

Turning to TNFα, the “Clotting time (CT) after prior activation of cells” value was “significant further shortening of CT”.
